Results reported in paper PMC11167047 (Cell Death Discovery, 2024).

How the values were obtained:
Assay in all cases: kinome screen (33PanQinase)
Format in all cases: biochemical
CDK5/p35NCK = target: T1, CDK5/p35NCK (Homo sapiens, UniProt Q00535)
T1 construct: purchased Reaction Biology Europe GmbH (formerly ProQinase)
Description: (§1) The Kinome Screening was performed by Reaction Biology Europe GmbH (http://reactionbiology.com; Freiburg i. Br., Germany).

CDK6/CycD3 = target: T2, CDK6/CycD3 (Homo sapiens, UniProt Q00534)
T2 construct: purchased Reaction Biology Europe GmbH (formerly ProQinase)
Description: as §1

ZAK = target: T3, ZAK (Homo sapiens, UniProt Q9NYL2)
T3 construct: purchased Reaction Biology Europe GmbH (formerly ProQinase)
Description: as §1

TNK1 = target: T4, TNK1 (Homo sapiens, UniProt Q13470)
T4 construct: purchased Reaction Biology Europe GmbH (formerly ProQinase)
T4 sequence (Q13470 1-666): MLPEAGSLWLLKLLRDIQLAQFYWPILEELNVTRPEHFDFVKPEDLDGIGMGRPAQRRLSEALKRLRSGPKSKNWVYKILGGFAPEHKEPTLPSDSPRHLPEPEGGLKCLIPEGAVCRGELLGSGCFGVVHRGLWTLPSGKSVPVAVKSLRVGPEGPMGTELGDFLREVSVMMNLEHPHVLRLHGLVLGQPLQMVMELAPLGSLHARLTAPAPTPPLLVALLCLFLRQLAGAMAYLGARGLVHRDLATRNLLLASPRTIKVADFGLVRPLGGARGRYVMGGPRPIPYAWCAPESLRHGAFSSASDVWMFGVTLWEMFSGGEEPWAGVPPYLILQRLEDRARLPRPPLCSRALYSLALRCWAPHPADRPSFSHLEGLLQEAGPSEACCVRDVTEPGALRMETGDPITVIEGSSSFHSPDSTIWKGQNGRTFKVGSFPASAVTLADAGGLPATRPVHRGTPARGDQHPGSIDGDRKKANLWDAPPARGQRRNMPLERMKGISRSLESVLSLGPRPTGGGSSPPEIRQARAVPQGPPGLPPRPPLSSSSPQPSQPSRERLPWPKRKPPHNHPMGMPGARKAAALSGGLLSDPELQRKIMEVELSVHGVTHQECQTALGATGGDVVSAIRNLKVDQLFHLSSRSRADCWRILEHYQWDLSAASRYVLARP
Description: as §1

CK1Δ = target: T5, CK1Δ (Homo sapiens, UniProt P48730)
T5 construct: purchased Reaction Biology Europe GmbH (formerly ProQinase)
Description: as §1

ACVR1B = target: T6, ACVR1B (Homo sapiens, UniProt P36896)
T6 construct: purchased Reaction Biology Europe GmbH (formerly ProQinase)
T6 sequence (P36896 24-505): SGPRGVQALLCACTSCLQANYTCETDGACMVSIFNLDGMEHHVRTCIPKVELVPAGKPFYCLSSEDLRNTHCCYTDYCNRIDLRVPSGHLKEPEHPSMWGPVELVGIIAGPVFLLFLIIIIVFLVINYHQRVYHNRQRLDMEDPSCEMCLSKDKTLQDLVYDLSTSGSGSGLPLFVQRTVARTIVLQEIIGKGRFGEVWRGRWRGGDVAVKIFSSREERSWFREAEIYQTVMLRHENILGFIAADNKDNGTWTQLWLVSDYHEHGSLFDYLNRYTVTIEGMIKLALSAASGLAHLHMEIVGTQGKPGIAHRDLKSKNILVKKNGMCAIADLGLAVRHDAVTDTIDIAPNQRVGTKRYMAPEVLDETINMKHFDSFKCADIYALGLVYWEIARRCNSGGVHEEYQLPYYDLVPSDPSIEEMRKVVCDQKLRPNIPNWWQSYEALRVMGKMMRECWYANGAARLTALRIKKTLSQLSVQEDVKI
Description: as §1

TBK1 = target: T7, TBK1 (Homo sapiens, UniProt Q9UHD2)
T7 construct: purchased Reaction Biology Europe GmbH (formerly ProQinase)
T7 sequence (Q9UHD2 1-729): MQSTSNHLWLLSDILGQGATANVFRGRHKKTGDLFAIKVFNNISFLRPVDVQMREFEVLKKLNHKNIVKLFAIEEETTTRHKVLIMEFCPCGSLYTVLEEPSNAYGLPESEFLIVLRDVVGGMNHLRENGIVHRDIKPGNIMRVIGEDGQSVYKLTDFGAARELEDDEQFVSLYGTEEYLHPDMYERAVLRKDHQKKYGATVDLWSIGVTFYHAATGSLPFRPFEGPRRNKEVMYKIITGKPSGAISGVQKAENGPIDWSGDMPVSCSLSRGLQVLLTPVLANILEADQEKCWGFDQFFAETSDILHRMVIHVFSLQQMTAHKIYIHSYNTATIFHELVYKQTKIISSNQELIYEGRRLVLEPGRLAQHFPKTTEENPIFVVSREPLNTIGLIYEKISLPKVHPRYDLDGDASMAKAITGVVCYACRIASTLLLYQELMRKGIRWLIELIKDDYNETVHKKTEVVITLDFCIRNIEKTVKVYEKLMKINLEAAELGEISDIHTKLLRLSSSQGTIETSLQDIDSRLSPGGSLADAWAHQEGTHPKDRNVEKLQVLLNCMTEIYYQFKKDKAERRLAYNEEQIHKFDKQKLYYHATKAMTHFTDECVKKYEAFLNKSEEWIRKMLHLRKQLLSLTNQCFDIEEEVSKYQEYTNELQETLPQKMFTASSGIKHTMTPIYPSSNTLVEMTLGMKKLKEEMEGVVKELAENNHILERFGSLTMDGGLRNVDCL
Description: as §1

T5 sequence (P48730 whole entry, stated change not applied): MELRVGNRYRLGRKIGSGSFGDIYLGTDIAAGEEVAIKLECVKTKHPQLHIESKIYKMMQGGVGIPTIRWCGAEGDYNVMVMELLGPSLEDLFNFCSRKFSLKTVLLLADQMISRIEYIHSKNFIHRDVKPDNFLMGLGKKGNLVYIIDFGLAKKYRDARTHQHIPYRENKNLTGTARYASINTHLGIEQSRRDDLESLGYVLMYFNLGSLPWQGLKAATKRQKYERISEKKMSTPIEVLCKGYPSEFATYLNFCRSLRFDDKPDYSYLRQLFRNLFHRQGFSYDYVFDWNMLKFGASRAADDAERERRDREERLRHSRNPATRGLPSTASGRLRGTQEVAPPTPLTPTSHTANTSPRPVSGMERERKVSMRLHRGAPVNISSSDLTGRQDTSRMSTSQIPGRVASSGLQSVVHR
T2 sequence (Q00534 whole entry): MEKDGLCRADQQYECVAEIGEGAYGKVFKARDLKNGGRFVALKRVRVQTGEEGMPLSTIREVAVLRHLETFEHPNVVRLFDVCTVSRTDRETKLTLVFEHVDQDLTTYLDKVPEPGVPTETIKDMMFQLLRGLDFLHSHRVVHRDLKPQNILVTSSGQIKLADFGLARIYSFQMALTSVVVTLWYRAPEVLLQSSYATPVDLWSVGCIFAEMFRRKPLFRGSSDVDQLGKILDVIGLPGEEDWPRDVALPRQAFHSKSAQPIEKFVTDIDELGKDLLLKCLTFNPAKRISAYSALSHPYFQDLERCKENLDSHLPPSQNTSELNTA
T2 sequence (P30281 whole entry partner): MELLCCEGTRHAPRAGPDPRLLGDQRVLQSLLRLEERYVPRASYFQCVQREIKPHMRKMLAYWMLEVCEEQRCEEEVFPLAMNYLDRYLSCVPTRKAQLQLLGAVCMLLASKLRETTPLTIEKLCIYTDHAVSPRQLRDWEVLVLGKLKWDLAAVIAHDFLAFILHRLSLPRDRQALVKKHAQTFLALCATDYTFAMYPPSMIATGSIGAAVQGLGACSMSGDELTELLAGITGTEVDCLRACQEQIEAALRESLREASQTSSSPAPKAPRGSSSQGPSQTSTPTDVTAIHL
T1 sequence (Q00535 whole entry): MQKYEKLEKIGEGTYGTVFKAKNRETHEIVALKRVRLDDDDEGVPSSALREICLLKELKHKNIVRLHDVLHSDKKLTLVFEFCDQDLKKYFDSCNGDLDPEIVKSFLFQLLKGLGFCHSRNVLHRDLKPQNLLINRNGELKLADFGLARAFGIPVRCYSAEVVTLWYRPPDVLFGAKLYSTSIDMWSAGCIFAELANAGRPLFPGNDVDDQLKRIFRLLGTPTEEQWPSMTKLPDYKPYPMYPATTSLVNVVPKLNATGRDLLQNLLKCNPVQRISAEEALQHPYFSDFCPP
T1 sequence (Q15078 whole entry partner): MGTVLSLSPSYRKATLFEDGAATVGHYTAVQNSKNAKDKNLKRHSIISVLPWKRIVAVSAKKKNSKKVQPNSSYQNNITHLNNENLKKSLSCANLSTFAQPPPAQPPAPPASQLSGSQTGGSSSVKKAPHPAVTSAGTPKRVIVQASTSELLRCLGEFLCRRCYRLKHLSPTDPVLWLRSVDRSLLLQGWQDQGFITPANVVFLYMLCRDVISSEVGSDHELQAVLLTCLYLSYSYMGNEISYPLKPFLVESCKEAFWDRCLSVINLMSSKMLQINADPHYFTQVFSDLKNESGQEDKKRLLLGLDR
T3 sequence (Q9NYL2 whole entry): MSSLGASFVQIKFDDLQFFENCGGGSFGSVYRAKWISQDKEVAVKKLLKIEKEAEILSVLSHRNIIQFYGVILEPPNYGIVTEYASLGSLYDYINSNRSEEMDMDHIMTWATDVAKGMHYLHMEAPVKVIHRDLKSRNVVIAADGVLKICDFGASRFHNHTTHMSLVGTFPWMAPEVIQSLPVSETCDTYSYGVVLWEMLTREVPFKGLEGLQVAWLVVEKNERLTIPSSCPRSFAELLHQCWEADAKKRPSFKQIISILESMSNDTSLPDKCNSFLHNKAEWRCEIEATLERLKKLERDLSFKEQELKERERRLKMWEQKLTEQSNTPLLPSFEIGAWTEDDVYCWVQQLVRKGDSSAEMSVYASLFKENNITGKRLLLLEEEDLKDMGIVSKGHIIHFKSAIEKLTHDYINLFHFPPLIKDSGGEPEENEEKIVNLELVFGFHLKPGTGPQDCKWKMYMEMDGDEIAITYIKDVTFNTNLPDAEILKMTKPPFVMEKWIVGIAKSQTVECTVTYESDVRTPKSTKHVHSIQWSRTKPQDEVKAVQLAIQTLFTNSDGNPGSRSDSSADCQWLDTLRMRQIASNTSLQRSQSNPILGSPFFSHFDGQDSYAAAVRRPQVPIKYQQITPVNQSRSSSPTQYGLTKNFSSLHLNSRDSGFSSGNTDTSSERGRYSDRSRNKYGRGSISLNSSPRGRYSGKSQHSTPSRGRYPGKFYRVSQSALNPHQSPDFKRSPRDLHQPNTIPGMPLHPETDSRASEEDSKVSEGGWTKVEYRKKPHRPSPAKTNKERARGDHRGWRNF

SMILES | residual kinase activity (CDK5/p35NCK; 0.3 µM) | residual kinase activity (CDK6/CycD3; 0.3 µM) | residual kinase activity (ZAK; 0.3 µM) | residual kinase activity (TNK1; 0.3 µM) | residual kinase activity (CK1Δ; 0.3 µM) | residual kinase activity (ACVR1B; 0.3 µM) | residual kinase activity (TBK1; 0.3 µM) | also measured
COc1ccnc2[nH]cc(-c3cc(N)nc(N)c3)c12 [meriolin 16] | 1 % of control | 98 % of control | 83 % of control | 39 % of control | 17 % of control | 69 % of control | 99 % of control | residual kinase activity (CDK5/p35NCK; 0.03 µM): 7 % of control; residual kinase activity (CDK6/CycD3; 0.03 µM): 88 % of control; residual kinase activity (ZAK; 0.03 µM): 96 % of control; residual kinase activity (TNK1; 0.03 µM): 82 % of control; residual kinase activity (CK1Δ; 0.03 µM): 77 % of control; residual kinase activity (ACVR1B; 0.03 µM): 75 % of control; residual kinase activity (TBK1; 0.03 µM): 114 % of control
c1ccc(CNc2cc(-c3c[nH]c4ncccc34)ccn2)cc1 [meriolin 36] | 0 % of control | 76 % of control | 57 % of control | 29 % of control | 43 % of control | 43 % of control | 48 % of control | residual kinase activity (CDK5/p35NCK; 3 µM): 0 % of control; residual kinase activity (CDK6/CycD3; 3 µM): 26 % of control; residual kinase activity (ZAK; 3 µM): 14 % of control; residual kinase activity (TNK1; 3 µM): 9 % of control; residual kinase activity (CK1Δ; 3 µM): 9 % of control; residual kinase activity (ACVR1B; 3 µM): 10 % of control; residual kinase activity (TBK1; 3 µM): 10 % of control
